Data as given in patent US12617779B2, “Self degradation-type CDK9 inhibitor prodrug and liposome encapsulating same” (Sumitomo Pharma Co., Ltd., priority 2021, dated 2026).

Assay: Evaluation of conversion rate to active form in buffer solution (Experimental Example 1)
Assay type: physicochemical
Conditions: for Production rate of Alvocidib / Residual rate / Alvocidib amount produced, after subtracting the 28.2% Alvocidib of the sample (Table 36-2): 37° C.; for Production rate of Alvocidib / Residual rate: 25 umol/L in buffer solution; for Stability in buffer solution at pH 5: pH 5, 37° C., up to 2 or 3 hours; for Conversion to Alvocidib at pH 7.4: pH 7.4, 37° C., up to 3 hours
In short: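 Prodrugs were held at 25 umol/L and 37° C in 50 mM citrate (pH 5.0, 5.5) or 50 mM phosphate (pH 6.0–7.4) buffer. Parent remaining and Alvocidib formed were quantified by HPLC at 0, 0.5, 1, 2 and 3 hours.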

CN1CC[C@H](c2c(OC(=O)N(CCC(F)(F)F)CC3CCCCN3)cc(O)c3c(=O)cc(-c4ccccc4Cl)oc23)[C@H](O)C1 (stereo partly drawn) [Example 13, 2-(2-chlorophenyl)-5-hydroxy-8-[(3S,4R)-3-hydroxy-1-methylpiperidin-4-yl]-4-oxo-4H-1-benzopyran-7-yl [(piperidin-2-yl)methyl](3,3,3-trifluoropropyl)carbamate]
Production rate of Alvocidib (pH5.0, 0 hr): 2.1%
Residual rate (pH5.0, 0 hr): 82.1%
Stability in buffer solution at pH 5: stable
Production rate of Alvocidib (pH5.0, 0.5 hr): 3.9%
Residual rate (pH5.0, 0.5 hr): 81.7%
Production rate of Alvocidib (pH5.0, 1 hr): 4.9%
Residual rate (pH5.0, 1 hr): 80.3%
Production rate of Alvocidib (pH5.0, 2 hr): 6.3%
Residual rate (pH5.0, 2 hr): 78.0%
Production rate of Alvocidib (pH5.0, 3 hr): 8.0%
Residual rate (pH5.0, 3 hr): 76.1%
Production rate of Alvocidib (pH5.5, 0 hr): 2.5%
Residual rate (pH5.5, 0 hr): 82.7%
Production rate of Alvocidib (pH5.5, 0.5 hr): 5.5%
Residual rate (pH5.5, 0.5 hr): 79.2%
Production rate of Alvocidib (pH5.5, 1 hr): 8.6%
Residual rate (pH5.5, 1 hr): 74.6%
Production rate of Alvocidib (pH5.5, 2 hr): 13.9%
Residual rate (pH5.5, 2 hr): 67.1%
Production rate of Alvocidib (pH5.5, 3 hr): 17.7%
Residual rate (pH5.5, 3 hr): 61.8%
Production rate of Alvocidib (pH6.0, 0 hr): 3.3%
Residual rate (pH6.0, 0 hr): 81.3%
Production rate of Alvocidib (pH6.0, 0.5 hr): 11.6%
Residual rate (pH6.0, 0.5 hr): 69.8%
Production rate of Alvocidib (pH6.0, 1 hr): 21.6%
Residual rate (pH6.0, 1 hr): 56.6%
Production rate of Alvocidib (pH6.0, 2 hr): 33.3%
Residual rate (pH6.0, 2 hr): 40.2%
Production rate of Alvocidib (pH6.0, 3 hr): 42.5%
Residual rate (pH6.0, 3 hr): 28.3%
Production rate of Alvocidib (pH6.5, 0 hr): 3.7%
Residual rate (pH6.5, 0 hr): 81.4%
Production rate of Alvocidib (pH6.5, 0.5 hr): 27.5%
Residual rate (pH6.5, 0.5 hr): 47.7%
Production rate of Alvocidib (pH6.5, 1 hr): 47.7%
Residual rate (pH6.5, 1 hr): 22.2%
Production rate of Alvocidib (pH6.5, 2 hr): 56.7%
Residual rate (pH6.5, 2 hr): 9.9%
Production rate of Alvocidib (pH6.5, 3 hr): 65.5%
Residual rate (pH6.5, 3 hr): 2.8%
Production rate of Alvocidib (pH7.0, 0 hr): 5.4%
Residual rate (pH7.0, 0 hr): 78.3%
Production rate of Alvocidib (pH7.0, 0.5 hr): 49.3%
Residual rate (pH7.0, 0.5 hr): 18.7%
Production rate of Alvocidib (pH7.0, 1 hr): 65.9%
Residual rate (pH7.0, 1 hr): 2.7%
Production rate of Alvocidib (pH7.0, 2 hr): 65.1%
Residual rate (pH7.0, 2 hr): 0.4%
Production rate of Alvocidib (pH7.0, 3 hr): 69.9%
Residual rate (pH7.0, 3 hr): 0.0%
Production rate of Alvocidib (pH7.4, 0 hr): 9.2%
Residual rate (pH7.4, 0 hr): 68.5%
Conversion to Alvocidib at pH 7.4: rapidly converted to Alvocidib
Production rate of Alvocidib (pH7.4, 0.5 hr): 65.8%
Residual rate (pH7.4, 0.5 hr): 2.2%
Production rate of Alvocidib (pH7.4, 1 hr): 65.5%
Residual rate (pH7.4, 1 hr): 0.2%
Production rate of Alvocidib (pH7.4, 2 hr): 68.6%
Residual rate (pH7.4, 2 hr): 0.0%
Production rate of Alvocidib (pH7.4, 3 hr): 66.1%
Residual rate (pH7.4, 3 hr): 0.0%

CN1CC[C@H](c2c(OC(=O)N(CCCC(F)(F)F)CC3CCCCN3)cc(O)c3c(=O)cc(-c4ccccc4Cl)oc23)[C@H](O)C1 (stereo partly drawn) [Example 14, 2-(2-chlorophenyl)-5-hydroxy-8-[(3S,4R)-3-hydroxy-1-methylpiperidin-4-yl]-4-oxo-4H-1-benzopyran-7-yl [(piperidin-2-yl)methyl](4,4,4-trifluorobutyl)carbamate]
Alvocidib amount produced, after subtracting the 28.2% Alvocidib of the sample (Table 36-2) (pH5.0, 0 hr): 1.0%
Production rate of Alvocidib (pH5.0, 0 hr): 29.2%
Residual rate (pH5.0, 0 hr): 56.6%
Stability in buffer solution at pH 5: stable
Alvocidib amount produced, after subtracting the 28.2% Alvocidib of the sample (Table 36-2) (pH5.0, 0.5 hr): 1.7%
Production rate of Alvocidib (pH5.0, 0.5 hr): 29.9%
Residual rate (pH5.0, 0.5 hr): 54.6%
Alvocidib amount produced, after subtracting the 28.2% Alvocidib of the sample (Table 36-2) (pH5.0, 1 hr): 3.5%
Production rate of Alvocidib (pH5.0, 1 hr): 31.7%
Residual rate (pH5.0, 1 hr): 53.0%
Alvocidib amount produced, after subtracting the 28.2% Alvocidib of the sample (Table 36-2) (pH5.0, 2 hr): 4.9%
Production rate of Alvocidib (pH5.0, 2 hr): 33.1%
Residual rate (pH5.0, 2 hr): 51.0%
Alvocidib amount produced, after subtracting the 28.2% Alvocidib of the sample (Table 36-2) (pH5.0, 3 hr): 5.2%
Production rate of Alvocidib (pH5.0, 3 hr): 33.4%
Residual rate (pH5.0, 3 hr): 52.7%
Alvocidib amount produced, after subtracting the 28.2% Alvocidib of the sample (Table 36-2) (pH5.5, 0 hr): 0.8%
Production rate of Alvocidib (pH5.5, 0 hr): 29.0%
Residual rate (pH5.5, 0 hr): 57.5%
Alvocidib amount produced, after subtracting the 28.2% Alvocidib of the sample (Table 36-2) (pH5.5, 0.5 hr): 2.7%
Production rate of Alvocidib (pH5.5, 0.5 hr): 30.9%
Residual rate (pH5.5, 0.5 hr): 55.8%
Alvocidib amount produced, after subtracting the 28.2% Alvocidib of the sample (Table 36-2) (pH5.5, 1 hr): 4.5%
Production rate of Alvocidib (pH5.5, 1 hr): 32.7%
Residual rate (pH5.5, 1 hr): 54.3%
Alvocidib amount produced, after subtracting the 28.2% Alvocidib of the sample (Table 36-2) (pH5.5, 2 hr): 7.2%
Production rate of Alvocidib (pH5.5, 2 hr): 35.4%
Residual rate (pH5.5, 2 hr): 48.6%
Alvocidib amount produced, after subtracting the 28.2% Alvocidib of the sample (Table 36-2) (pH5.5, 3 hr): 9.7%
Production rate of Alvocidib (pH5.5, 3 hr): 37.9%
Residual rate (pH5.5, 3 hr): 47.7%
Alvocidib amount produced, after subtracting the 28.2% Alvocidib of the sample (Table 36-2) (pH6.0, 0 hr): 0.9%
Production rate of Alvocidib (pH6.0, 0 hr): 29.1%
Residual rate (pH6.0, 0 hr): 55.8%
Alvocidib amount produced, after subtracting the 28.2% Alvocidib of the sample (Table 36-2) (pH6.0, 0.5 hr): 6.2%
Production rate of Alvocidib (pH6.0, 0.5 hr): 34.4%
Residual rate (pH6.0, 0.5 hr): 49.7%
Alvocidib amount produced, after subtracting the 28.2% Alvocidib of the sample (Table 36-2) (pH6.0, 1 hr): 10.9%
Production rate of Alvocidib (pH6.0, 1 hr): 39.1%
Residual rate (pH6.0, 1 hr): 44.8%
Alvocidib amount produced, after subtracting the 28.2% Alvocidib of the sample (Table 36-2) (pH6.0, 2 hr): 22.0%
Production rate of Alvocidib (pH6.0, 2 hr): 50.2%
Residual rate (pH6.0, 2 hr): 31.8%
Alvocidib amount produced, after subtracting the 28.2% Alvocidib of the sample (Table 36-2) (pH6.0, 3 hr): 27.7%
Production rate of Alvocidib (pH6.0, 3 hr): 55.9%
Residual rate (pH6.0, 3 hr): 24.5%
Alvocidib amount produced, after subtracting the 28.2% Alvocidib of the sample (Table 36-2) (pH6.5, 0 hr): 3.4%
Production rate of Alvocidib (pH6.5, 0 hr): 31.6%
Residual rate (pH6.5, 0 hr): 52.2%
Alvocidib amount produced, after subtracting the 28.2% Alvocidib of the sample (Table 36-2) (pH6.5, 0.5 hr): 17.6%
Production rate of Alvocidib (pH6.5, 0.5 hr): 45.8%
Residual rate (pH6.5, 0.5 hr): 35.2%
Alvocidib amount produced, after subtracting the 28.2% Alvocidib of the sample (Table 36-2) (pH6.5, 1 hr): 28.9%
Production rate of Alvocidib (pH6.5, 1 hr): 57.1%
Residual rate (pH6.5, 1 hr): 22.9%
Alvocidib amount produced, after subtracting the 28.2% Alvocidib of the sample (Table 36-2) (pH6.5, 2 hr): 34.8%
Production rate of Alvocidib (pH6.5, 2 hr): 63.0%
Residual rate (pH6.5, 2 hr): 14.0%
Alvocidib amount produced, after subtracting the 28.2% Alvocidib of the sample (Table 36-2) (pH6.5, 3 hr): 44.4%
Production rate of Alvocidib (pH6.5, 3 hr): 72.6%
Residual rate (pH6.5, 3 hr): 5.1%
Alvocidib amount produced, after subtracting the 28.2% Alvocidib of the sample (Table 36-2) (pH7.0, 0 hr): 2.5%
Production rate of Alvocidib (pH7.0, 0 hr): 30.7%
Residual rate (pH7.0, 0 hr): 53.4%
Alvocidib amount produced, after subtracting the 28.2% Alvocidib of the sample (Table 36-2) (pH7.0, 0.5 hr): 33.8%
Production rate of Alvocidib (pH7.0, 0.5 hr): 62.0%
Residual rate (pH7.0, 0.5 hr): 16.3%
Alvocidib amount produced, after subtracting the 28.2% Alvocidib of the sample (Table 36-2) (pH7.0, 1 hr): 39.8%
Production rate of Alvocidib (pH7.0, 1 hr): 68.0%
Residual rate (pH7.0, 1 hr): 8.4%
Alvocidib amount produced, after subtracting the 28.2% Alvocidib of the sample (Table 36-2) (pH7.0, 2 hr): 47.3%
Production rate of Alvocidib (pH7.0, 2 hr): 75.5%
Residual rate (pH7.0, 2 hr): 1.1%
Alvocidib amount produced, after subtracting the 28.2% Alvocidib of the sample (Table 36-2) (pH7.0, 3 hr): 47.0%
Production rate of Alvocidib (pH7.0, 3 hr): 75.2%
Residual rate (pH7.0, 3 hr): 0.4%
Alvocidib amount produced, after subtracting the 28.2% Alvocidib of the sample (Table 36-2) (pH7.4, 0 hr): 7.7%
Production rate of Alvocidib (pH7.4, 0 hr): 35.9%
Residual rate (pH7.4, 0 hr): 45.8%
Conversion to Alvocidib at pH 7.4: rapidly converted to Alvocidib
Alvocidib amount produced, after subtracting the 28.2% Alvocidib of the sample (Table 36-2) (pH7.4, 0.5 hr): 43.4%
Production rate of Alvocidib (pH7.4, 0.5 hr): 71.6%
Residual rate (pH7.4, 0.5 hr): 4.6%
Alvocidib amount produced, after subtracting the 28.2% Alvocidib of the sample (Table 36-2) (pH7.4, 1 hr): 48.4%
Production rate of Alvocidib (pH7.4, 1 hr): 76.6%
Residual rate (pH7.4, 1 hr): 0.7%
Alvocidib amount produced, after subtracting the 28.2% Alvocidib of the sample (Table 36-2) (pH7.4, 2 hr): 47.4%
Production rate of Alvocidib (pH7.4, 2 hr): 75.6%
Residual rate (pH7.4, 2 hr): 0.2%
Alvocidib amount produced, after subtracting the 28.2% Alvocidib of the sample (Table 36-2) (pH7.4, 3 hr): 47.5%
Production rate of Alvocidib (pH7.4, 3 hr): 75.7%
Residual rate (pH7.4, 3 hr): 0.3%
